Legend:
Type in all cases: biochemical
PRMT3 = PRMT3 (Homo sapiens, UniProt O60678); experiment: PRMT panel selectivity test, PRMT3; conditions: AlphaLISA
Method: (§1) This experiment was assayed in a buffer prepared on the same day consisting of 10 mMTirs-HCl (pH=8.0), […] and 1 mM DTT. The compounds were prepared to the highest inhibitor concentration ultimately required in the 100× reaction with 100% DMSO and then transferred to one well of a 384-well Echo plate (Echo-eligible 384-well polypropylene microplates 2.0, transparent, flat-bottomed) and sequentially diluted in the next well with a 3-fold dilution of 100% DMSO, and so on, with a total of 10 concentrations based on Precision. 100% DMSO was added to two empty wells as control well without compound and control well without enzyme in the same 384-well Echo plate. 100 nL of compound was transferred from each well of the 384-well Echo plate to a 384-well assay plate (OptiPlate (384-well, white)) via the Echo 550 liquid processor. For wells with compounds and control well without compound, a mixture containing PRMT1 enzyme (5 uL) was added to the 384-well assay plate. For control well without enzyme, a mixture containing test buffer (5 uL) was added instead. The compounds were allowed to incubate with PRMT3 for 15 minutes at room temperature, and then a mixture containing cold SAM and peptide (5 uL) was added to start the reaction (final volume=10 uL). The final concentrations of the components were as follows: 0.1 nM for PRMT3, 15 uM for SAM, 0.05 uM for peptide, and 1% DMSO. After 60 min of incubation at room temperature, the reaction was terminated by the addition of donor and acceptor magnetic beads (15 uL) with a final concentration of 10 ug/mL diluted with AlphaLISA Epigenetics Buffer. The 384-well assay plate was incubated at room temperature for 60 min and the relative fluorescence units (RFU) were nextly determined using a multi-mode plate reader in Alpha mode (Ex680/Em615).
(§2) Curve fitting: the raw data were copied from Reader and the inhibition values were calculated in Excel by equation (1). […]

PRMT4 = biological target: T1, PRMT4 (Homo sapiens, UniProt Q86X55); experiment: PRMT panel selectivity test, PRMT4
T1 sequence (Q86X55 1-608): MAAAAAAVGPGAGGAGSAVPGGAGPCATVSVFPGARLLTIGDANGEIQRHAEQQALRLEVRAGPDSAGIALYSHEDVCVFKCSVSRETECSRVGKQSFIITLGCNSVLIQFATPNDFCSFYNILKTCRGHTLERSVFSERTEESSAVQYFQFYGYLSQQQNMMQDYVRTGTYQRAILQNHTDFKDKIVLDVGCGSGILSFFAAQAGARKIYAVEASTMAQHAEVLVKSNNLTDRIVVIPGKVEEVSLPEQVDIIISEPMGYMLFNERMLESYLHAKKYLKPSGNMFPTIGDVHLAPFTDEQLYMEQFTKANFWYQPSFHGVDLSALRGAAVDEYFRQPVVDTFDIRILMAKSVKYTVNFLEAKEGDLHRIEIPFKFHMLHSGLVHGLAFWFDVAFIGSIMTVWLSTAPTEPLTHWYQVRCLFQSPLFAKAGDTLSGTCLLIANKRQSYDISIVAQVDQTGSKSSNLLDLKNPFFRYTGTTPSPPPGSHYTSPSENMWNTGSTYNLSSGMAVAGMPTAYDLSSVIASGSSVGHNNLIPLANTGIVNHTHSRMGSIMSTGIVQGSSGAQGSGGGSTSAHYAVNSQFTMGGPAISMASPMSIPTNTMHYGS
Method: [The procedure below names another target; the source says it served here with some conditions changed.] as §1, §2

PRMT6 = PRMT6 (Homo sapiens, UniProt Q96LA8); experiment: PRMT panel selectivity test, PRMT6
Chain of PRMT6 (Q96LA8 whole entry): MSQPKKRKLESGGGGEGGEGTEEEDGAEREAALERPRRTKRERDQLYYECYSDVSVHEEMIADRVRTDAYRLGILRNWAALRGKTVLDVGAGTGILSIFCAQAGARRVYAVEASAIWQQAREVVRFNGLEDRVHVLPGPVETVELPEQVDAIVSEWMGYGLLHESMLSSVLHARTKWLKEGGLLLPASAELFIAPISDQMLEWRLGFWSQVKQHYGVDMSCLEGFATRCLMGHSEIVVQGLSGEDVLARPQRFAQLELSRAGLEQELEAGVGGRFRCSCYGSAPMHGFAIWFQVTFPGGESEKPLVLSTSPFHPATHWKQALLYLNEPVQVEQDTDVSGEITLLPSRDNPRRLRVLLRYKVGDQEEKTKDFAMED
Method: [The procedure below names another target; the source says it served here with some conditions changed.] as §1, §2

Chain of PRMT3 (O60678 whole entry): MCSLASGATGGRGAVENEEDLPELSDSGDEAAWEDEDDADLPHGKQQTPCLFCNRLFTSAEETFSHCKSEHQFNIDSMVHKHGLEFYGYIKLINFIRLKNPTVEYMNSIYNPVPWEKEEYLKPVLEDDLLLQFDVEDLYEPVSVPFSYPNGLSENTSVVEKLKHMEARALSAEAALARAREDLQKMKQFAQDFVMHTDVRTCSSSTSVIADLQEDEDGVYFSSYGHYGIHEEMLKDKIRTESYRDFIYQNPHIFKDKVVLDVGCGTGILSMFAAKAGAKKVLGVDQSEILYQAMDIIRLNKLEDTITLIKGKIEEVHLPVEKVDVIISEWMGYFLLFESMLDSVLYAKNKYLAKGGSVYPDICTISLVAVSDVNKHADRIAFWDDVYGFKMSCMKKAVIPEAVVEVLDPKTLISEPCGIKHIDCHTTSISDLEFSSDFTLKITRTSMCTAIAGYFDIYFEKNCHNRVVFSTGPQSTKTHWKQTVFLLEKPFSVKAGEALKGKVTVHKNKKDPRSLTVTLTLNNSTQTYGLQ

SMILES | IC50 (PRMT3) | IC50 (PRMT4) | IC50 (PRMT6)
CCOCC1(COCC)CCC(c2cccnc2CN(C)CCNC)CC1 [P207] | 50 to 500 nM | < 50 nM | < 50 nM
CNCCN(C)Cc1ncccc1N1CCc2ccccc2CC1 [P118] | 50 to 500 nM | 50 to 500 nM | < 50 nM
CNCCN(C)Cc1ccccc1C1CCN(c2ccccc2)CC1 [P023] | < 50 nM | < 50 nM | < 50 nM
